Test results: patent US12097262B2, “mTORC1 inhibitors” (THE REGENTS OF THE UNIVERSITY OF CALIFORNIA, priority 2014, dated 2024)
Where two headings read alike, the source gives them in different places.

Legend:
[1] = target: mTOR (Homo sapiens, UniProt P42345); assay: Potency of the ASi mTOR inhibition; type: biochemical
[2] = system: SNU-398; assay: Cell viability assay (CellTiter-Glo), SNU-398; type: cell-based, human; conditions: for inhibition at 10 µM: read-out: % inhibition at 10 μM SNU-398, 10 μM; for EC50: 72 h after compound treatment
Method: (§1) The cells were grown in appropriate medium (vender recommended) supplemented with 10% heat-inactivated fetal bovine serum (FBS), in tissue culture dishes placed in a humidified incubator maintained at 37° C. in an atmosphere of 5% CO2 and 95% air.
(§2) Cell viability assay. Cells were seeded in a 96-multiwell plate at 3000-4000 cells per well in medium containing FBS and cells were incubated at 37° C. overnight. After 18-20 h, compounds in 10×DMSO solution (n=3) were added to the cells and were incubated for additional 3 days in a humidified incubator in an atmosphere of 5% CO2 and 95% air. After treatment of Cell Titer-Glo® luminescent cell viability assay reagent (Promega Corporation, Madison, WI USA), the luminescence value was recorded using SpectraMax M5 Multi-Mode Microplate Readers (Molecular Devices, LLC, Sunnyvale, CA USA). Concentration response curves were generated on GraphPad Prism (GraphPad Software, La Jolla, CA USA) by calculating the decrease in luminescence values in compound-treated samples relative to the DMSO controls.
(§3) Anti-proliferative effects of compounds were evaluated in human colorectal cancer HCT-15 cells (mutation: KRAS, PIK3CA), human hepatocellular carcinoma SNU-449 (mutation: TP53, CDKN2A), SNU-398 (mutation: CTNNB 1), SNU-182 (mutation: TP53) and renal adenocarcinoma 786-O (mutation: VHL, PTEN, TP53, CDKN2A) in 72 h after compound treatment.

[3] = system: SNU-182; assay: Cell viability assay (CellTiter-Glo), SNU-182; type: cell-based, human; conditions: for inhibition at 10 µM: read-out: % inhibition at 10 μM SNU-182, 10 μM; for EC50: 72 h after compound treatment
Method: as §1, §2, §3

[4] = system: SNU-449; assay: Cell viability assay (CellTiter-Glo), SNU-449; conditions: for inhibition at 10 µM: SNU-449, read-out: % inhibition at 10 μM SNU-449; for EC50: read-out: EC50 (nM) SNU-449
Method: as §1, §2, §3

[5] = system: mTORC1 and mTORC2 downstream signaling (pS6, p4E-BP1, pAkt S473); assay: Downstream signaling of mTOR by immunoblotting, dose dependence, HCT-15 and SNU-449 cells; type: cell-based, human; conditions: immunoblot at 3 h after compound treatment
Method: Downstream signaling of mTOR was tested using an immunoblotting method at 3 h after compound treatment.

[6] = system: HCT-15; assay: Cell viability assay (CellTiter-Glo), HCT-15; type: cell-based, human; conditions: for EC50: 72 h after compound treatment
Method: as §1, §2, §3

[7] = system: 786-O; assay: Cell viability assay (CellTiter-Glo), 786-O; type: cell-based, human
Method: as §1, §2, §3

[8] = system: mTORC1 and mTORC2 signaling (pS6, p4E-BP1, pAkt S473); assay: Time-course effects on mTORC1 and mTORC2 signaling in SNU-449; type: cell-based, human; conditions: 0.33-24 h
Method: Cellular Signaling Effects of Class mTOR Inhibitors. Cells were seeded in 60 mm cell culture dishes and incubated 1-2 days until 70-90% confluency. Cells were treated with compound solution in DMSO (1000×) and incubated at 37° C. in a 5% CO2 humidified incubator for a given length of time. Whole cell lysates were prepared using RIPA buffer (R^3792) (TEKnova, Hollister, CA USA) with a phosphatase inhibitor cocktail tablet PhosStop and a protease inhibitor cocktail tablet cOmplete Mini (Roche Diagnostics GmbH, Mannheim, Germany). Cell lysates (based on a certain amount of protein determined by Pierce BCA Protein Assay Kit (PI-23225) (Thermo Fisher Scientific Inc., Waltham, MA USA)) were electrophoresed using a Criterion Tris-HCl gel 4-20% (Bio-Rad Laboratories, Hercules, CA USA) and transferred to a nitrocellulose membrane (162-0115) (Bio-Rad Laboratories, Hercules, CA USA). After incubation for more than 1 h with a blocking buffer at room temperature, membranes were labeled with primary antibodies by overnight incubation at 4° C., followed by 1 hour incubation with horseradish peroxidase-conjugated (HRP-conjugated) secondary antibodies at room temperature. The following antibodies were used for immunoblot: phospho-Akt (S473) (#9271), phospho-Akt (T308) (#2965), total-Akt (#9272), phospho-S6 (Ser240/Ser244) (#2215L), S6 ribosomal protein (#2217), phospho-4E-BP1 (T37/T46) (#2855), total 4E-BP1 (#9644) (Cell Signaling Technology, Inc., Danvers, MA USA), FKBP12 (sc-28814) mouse β-actin (sc-8432) (Santa Cruz Biotechnology, Inc., Dallas, Texas USA), anti-rabbit IgG conjugated with horseradish peroxidase (HRP) (#7074), and anti-mouse IgG conjugated with HRP (#7076) (Cell Signaling Technology, Inc., Danvers, MA USA). Nitrocellulose membranes were exposed with SuperSignal® West Pico Chemiluminescent Substrate or Femto Maximum Sensitivity Substrate (Thermo Fisher Scientific Inc., Waltham, MA USA) and signals were recorded on a CL-Xposure film (Thermo Fisher Scientific Inc., Waltham, MA USA).

[9] = system: TORC1 and TORC2 outputs (p4E-BP1, pS6); assay: Drug washout experiment in SNU-449 cells; type: cell-based, human; conditions: 30 nM for 3 h, then washout
Method: Cellular Signaling Effects of Class mTOR Inhibitors. Cells were seeded in 60 mm cell culture dishes and incubated 1-2 days until 70-90% confluency. Cells were treated with compound solution in DMSO (1000×) and incubated at 37° C. in a 5% CO2 humidified incubator for a given length of time. […] After incubation for more than 1 h with a blocking buffer at room temperature, membranes were labeled with primary antibodies by overnight incubation at 4° C., followed by 1 hour incubation with horseradish peroxidase-conjugated (HRP-conjugated) secondary antibodies at room temperature. […] Nitrocellulose membranes were exposed with SuperSignal® West Pico Chemiluminescent Substrate or Femto Maximum Sensitivity Substrate (Thermo Fisher Scientific Inc., Waltham, MA USA) and signals were recorded on a CL-Xposure film (Thermo Fisher Scientific Inc., Waltham, MA USA).
Drug Washout Experiment. SNU-449 cells were treated with 30 nM of compounds for 3 h. The medium was aspirated out and cells were washed with fresh 10% FBS in RPMI1640 medium. Then, cells were incubated with fresh 10% FBS in RPMI1640 medium at 37° C. for described time period.

[10] = Effect on blood glucose level in mice; conditions: mice (n=3), intraperitoneal, Rapamycin treatment group (5 mg/kg, FIG. 10)
From the text: Effect on blood glucose level. […] Blood glucose levels (mg/dL) were monitored.

[11] = system: mTORC1 (pS6 S240/244, P-4EBP1); assay: Western blot analysis in SNU-449 cells (E1010); type: cell-based, human; conditions: 3 hours (FIG. 13B)
Method: FIGS. 13A-13B. FIG. 13A: MCF-7 cells were treated for 4 hours with E1035 and M1071 before harvesting. FIG. 13B: SNU-449 cells were treated with 3 hours with E1010 before harvesting. Cells were lysed and blotted for the indicated proteins. M1071 has the narrowest concentration range between mTORC1 and mTORC2 inhibition. The concentration range between mTORC1 and mTORC2 inhibition widens for E1035.
Cell Culture and Western Blot Analysis. Cells were grown in 6-well plates and treated with inhibitor at the indicated concentrations or with vehicle (0.1% DMSO). Treated cells were lysed, and lysates were resolved by SDS-PAGE, transferred to nitrocellulose and blotted. All antibodies were purchased from Cell Signaling Technology.

COc1ccc2[nH]c(-c3nn(C(C)C)c4ncnc(N)c34)cc2c1 [MeO-PP242]
IC50 [1]: > 10000 nM

CO[C@H]1C[C@@H]2CC[C@@H](C)[C@@](O)(O2)C(=O)C(=O)N2CCCC[C@H]2C(=O)O[C@H]([C@H](C)C[C@@H]2CC[C@@H](OCCOCc3cn(CCOCCOCCOCCOCCC(=O)NCCCCn4nc(-c5ccc6oc(N)nc6c5)c5c(N)ncnc54)nn3)[C@H](OC)C2)CC(=O)[C@H](C)/C=C(\C)[C@@H](O)[C@@H](OC)C(=O)[C@H](C)C[C@H](C)/C=C/C=C/C=C/1C [Compound M-3059, 40-O-(2-((1-(20-(4-amino-3-(2-aminobenzo[d]oxazol-5-yl)-1H-pyrazolo[3,4-d]pyrimidin-1-yl)-15-oxo-3,6,9,12-tetraoxa-16-azaicosyl)-1H-1,2,3-triazol-4-yl)methoxy)ethyl)-rapamycin]
inhibition at 10 µM ([2]; Homo sapiens): 50 to 100%
inhibition at 10 µM ([3]; Homo sapiens): < 25%
inhibition at 10 µM ([4]; Homo sapiens): < 25%

CO[C@H]1C[C@@H]2CC[C@@H](C)[C@@](O)(O2)C(=O)C(=O)N2CCCC[C@H]2C(=O)O[C@H]([C@H](C)C[C@@H]2CC[C@@H](OCCOCc3cn(CCCCn4nc(-c5ccc6oc(N)nc6c5)c5c(N)ncnc54)nn3)[C@H](OC)C2)CC(=O)[C@H](C)/C=C(\C)[C@@H](O)[C@@H](OC)C(=O)[C@H](C)C[C@H](C)/C=C/C=C/C=C/1C [Compound M-1115, 40-O-(2-((1-(4-(4-amino-3-(2-aminobenzo[d]oxazol-5-yl)-^1H-pyrazolo[3,4-d]pyrimidin-1-yl)butyl)-1H-1,2,3-triazol-4-yl)methoxy)ethyl)-rapamycin]
p4E-BP1 inhibition [5]: weaker p4E-BP1 inhibition
EC50 ([2]; Homo sapiens): 10 to 50 nM
EC50 ([3]; Homo sapiens): 10 to 50 nM
EC50 ([6]; Homo sapiens): > 100 nM
EC50 ([4]; Homo sapiens, SNU-449, 72 h): > 100 nM
EC50 ([7]; Homo sapiens, 786-0, 72 h after compound treatment): > 100 nM

CO[C@H]1C[C@@H]2CC[C@@H](C)[C@@](O)(O2)C(=O)C(=O)N2CCCC[C@H]2C(=O)O[C@H]([C@H](C)C[C@@H]2CC[C@@H](O)[C@H](OC)C2)CC(=O)[C@H](C)/C=C(\C)[C@@H](O)[C@@H](OC)C(=O)[C@H](C)C[C@H](C)/C=C/C=C/C=C/1C [Rapamycin, (3 S,6R,7E,9R,10R,12R,14S,15E,17E,19E,21S,23 S,26R,27R,34aS)-9,10,12,13,14,21,22,23,24,25,26,27,32,33,34,34a-hexadecahydro-9,27-dihydroxy-3-[(1R)-2-[(1S,3R,4R)-4-hydroxy-3-methoxycyclohexyl]-1-methylethyl]-10,21-dimethoxy-6,8,12,14,20,26-hexamethyl-23,27-epoxy-3H-pyrido[2,1-c][1,4]-oxaazacyclohentriacontine-1,5,11,28,29(4H,6H,31H)-pentone, reference compound]
inhibition at 10 µM ([2]; Homo sapiens): 25 to 50%
inhibition at 10 µM ([3]; Homo sapiens): < 25%
p4E-BP1 inhibition, time course [8]: moderate inhibitory activity
phosphorylation of Akt S473, time course [8]: transient feedback activation on Akt S473 at 1 and 3 h, and then a slight inhibition was observed at 24 h
maintenance of effects after washout [9]: maintained longer after washout compared to asTORi
inhibition at 10 µM ([6]; Homo sapiens, read-out: % inhibition at 10 μM HCT-15, 10 μM): 25 to 50%
inhibition at 10 µM ([4]; Homo sapiens): < 25%
blood glucose level [10]: no increase in blood glucose levels
inhibition at 10 µM ([7]; Homo sapiens, 786-0, read-out: % inhibition at 10 μM 786-O, 10 μM): < 25%

COc1ccc2[nH]c(-c3nn(CCCCNC(=O)CCOCCOCCOCCOCCOCCOCCOCCOCCn4cc(COCCO[C@@H]5CC[C@@H](C[C@@H](C)[C@@H]6CC(=O)[C@H](C)/C=C(\C)[C@@H](O)[C@@H](OC)C(=O)[C@H](C)C[C@H](C)/C=C/C=C/C=C(\C)[C@@H](OC)C[C@@H]7CC[C@@H](C)[C@@](O)(O7)C(=O)C(=O)N7CCCC[C@H]7C(=O)O6)C[C@H]5OC)nn4)c4ncnc(N)c34)cc2c1 [Compound E1010]
inhibition of P-4EBP1 [11]: little or no inhibition
inhibition of pS6 (S240/244) [11]: inhibition
mTORC1 inhibition [11]: only partially inhibits mTORC1

COC1CC2CCC(C)C(O)(O2)C(=O)C(=O)N2CCCCC2C(=O)OC(C(C)CC2CCC(OCCOCc3cn(CCOCCOCCOCCOCCOCCOCCOCCNC(=O)CCCCn4nc(-c5ccc6oc(N)nc6c5)c5c(N)ncnc54)nn3)C(OC)C2)CC(=O)C(C)C=C(C)C(O)C(OC)C(=O)C(C)CC(C)C=CC=CC=C1C (stereo not shown) [Compound M-1111, 40-O-(2-((1-(29-(4-amino-3-(2-aminobenzo[d]oxazol-5-yl)-1H-pyrazolo[3,4-d]pyrimidin-1-yl)-25-oxo-3,6,9,12,15,18,21-heptaoxa-24-azanonacosyl)-1H-1,2,3-triazol-4-yl)methoxy)ethyl)-rapamycin]
mTORC1/2 downstream inhibition (pS6, p4E-BP1 and pAkt S473) [5]: stronger inhibition of mTORC1 signaling (pS6 and p4E-BP1) compared to mTORC2 downstream Akt S473 phosphorylation
p4E-BP1 inhibition [5]: complete p4E-BP1 inhibition at drug concentrations in which pAkt S473 is not inhibited
% inhibition at 10 μM SNU-398 ([2]; 10 μM): +++ (50% < +++ ≤ 100%)
EC50 [2]: < 10 nM
% inhibition at 10 μM SNU-182 ([3]; 10 μM): ++ (25% < ++ ≤ 50%)
EC50 [3]: < 10 nM
% inhibition at 10 μM HCT-15 ([6]; 10 μM): +++ (50% < +++ ≤ 100%)
EC50 [6]: 10 to 50 nM
% inhibition at 10 μM SNU-449 ([4]; 10 μM, SNU-449): ++ (25% < ++ ≤ 50%)
EC50 ([4]; SNU-449, 72 h after compound treatment): < 10 nM
% inhibition at 10 μM 786-O ([7]; 10 μM): +++ (50% < +++ ≤ 100%)
EC50 ([7]; 72 h after compound treatment): 10 to 50 nM
